Test results taken from patent publication US20240034736A1, “HSD17B13 INHIBITORS AND USES THEREOF” (FL2022-001, Inc., priority 2020, published 2024).

target: Recombinant human HSD17B13 enzyme (Homo sapiens (Human), UniProt Q7Z5P4); assay: HSD17b13 NAD(P)H-Glo Biochemical Assay; conditions: 50 uM estradiol, 1 mM NAD+; read-out: HSD17β13 IC50
Procedure, shortened: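 Recombinant human HSD17B13 was pre-incubated with inhibitor for 20 min at RT in 20 mM Tris pH 7.4 with 0.002% Tween-20 and 0.02% BSA. Reaction then ran with 50 uM estradiol and 1 mM NAD+ (final) for 3 h at 37° C. NADH formed was detected by NAD(P)H-Glo luminescence after 1 h at RT.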

Recombinant human HSD17B13 enzyme, sequence (Q7Z5P4 20-300): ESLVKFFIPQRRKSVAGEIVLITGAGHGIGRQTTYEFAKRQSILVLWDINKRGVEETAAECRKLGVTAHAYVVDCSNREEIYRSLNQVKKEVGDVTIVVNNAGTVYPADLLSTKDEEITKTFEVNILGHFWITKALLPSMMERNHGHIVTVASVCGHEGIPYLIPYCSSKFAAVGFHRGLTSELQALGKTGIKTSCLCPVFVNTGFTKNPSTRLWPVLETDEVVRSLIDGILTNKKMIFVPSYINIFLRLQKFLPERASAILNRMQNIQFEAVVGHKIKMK

| SMILES | IC50 [µM] |
| --- | --- |
| Oc1cccc(-c2ccc3c(cnn3-c3ccc(F)c(O)c3)c2)c1 [Compound 4.03, 2-Fluoro-5-(5-(3-hydroxyphenyl)-1H-indazol-1-yl)phenol] | 0.1 to 1 |
| Oc1cc(-n2ncc3nc(-c4ccc(O)c(Cl)c4)ncc32)ccc1F [Compound 5.28, 2-Chloro-4-(1-(4-fluoro-3-hydroxyphenyl)-1H-pyrazolo[4,3-d]pyrimidin-5-yl)phenol] | 1 to 30 |
| NS(=O)(=O)c1ccc(-c2ccc3c(cnn3-c3ccc(F)c(O)c3)c2)cc1 [Compound 5.04, 4-(1-(4-Fluoro-3-hydroxyphenyl)-1H-indazol-5-yl)benzenesulfonamide] | 0.1 to 1 |
| Cc1nn(-c2cc(C(F)(F)F)c(F)c(O)c2F)c2cnc(N3CCO[C@H](c4ccccc4)C3)cc12 [Compound 19.108, (R)-2,6-Difluoro-3-(3-methyl-5-(2-phenylmorpholino)-1H-pyrazolo[3,4-c]pyridin-1-yl)-5-(trifluoromethyl)phenol] | < 0.1 |
| Cc1nn(-c2ccc(Cl)c(O)c2F)c2cc(F)c(N3CCN(S(C)(=O)=O)CC34CC4)cc12 [Compound 19.104, 6-Chloro-2-fluoro-3-(6-fluoro-3-methyl-5-(7-(methylsulfonyl)-4,7-diazaspiro[2.5]octan-4-yl)-1H-indazol-1-yl)phenol] | < 0.1 |
| O=S(=O)(c1ccccc1)N1CCN(c2cc3cnn(-c4cc(O)c(F)c(F)c4)c3cc2Cl)CC1 [Compound 21.39, 5-(6-Chloro-5-(4-(phenyl-sulfonyl)piperazin-1-yl)-1H-indazol-1-yl)-2,3-difluoro-phenol] | 0.1 to 1 |
| Oc1ccc(-c2ncc3c(cnn3-c3ccc(F)c(O)c3)n2)c(Cl)c1 [Compound 5.27, 5-(5-(2-Chloro-4-hydroxyphenyl)-1H-pyrazolo[4,3-d]pyrimidin-1-yl)-2-fluorophenol] | 0.1 to 1 |
| Oc1cc(-n2ccc3cc(-c4ccc(O)c(Cl)c4)ccc32)ccc1F [Compound 1.06, 2-Chloro-4-(1-(4-fluoro-3-hydroxyphenyl)-1H-indol-5-yl)phenol] | 0.1 to 1 |
| CN(C)c1nn(-c2cc(C(F)(F)F)c(F)c(O)c2F)c2ccc(N(C)C3CCOCC3)cc12 [Compound 19.76, 3-(3-(Dimethylamino)-5-(methyl(tetrahydro-2H-pyran-4-yl)amino)-1H-indazol-1-yl)-2,6-difluoro-5-(trifluoromethyl)phenol] | 0.1 to 1 |
| CS(=O)(=O)N1CCN(c2cc3cn(-c4ccc(F)c(O)c4)nc3cn2)CC1 [Compound 19.10, 2-Fluoro-5-(5-(4-(methylsulfonyl)piperazin-1-yl)-2H-pyrazolo[3,4-c]pyridine-2-yl)phenol] | 1 to 30 |
| CS(=O)(=O)N1CCN(c2cc3cn(-c4ccc(F)c(O)c4F)nc3cn2)CC1 [Compound 19.08, 2,6-Difluoro-3-(5-(4-(methylsulfonyl)piperazin-1-yl)-2H-pyrazolo[3,4-c]pyridine-2-yl)phenol] | 1 to 30 |
| CS(=O)(=O)N1CCC(c2ccc3c(cnn3-c3ccc(F)c(O)c3)c2)CC1 [Compound 26.01, 2-Fluoro-5-(5-(1-(methyl-sulfonyl)piperidin-4-yl)-1H-indazol-1-yl)phenol] | 1 to 30 |
| CS(=O)(=O)N1CC(Oc2ccc3c(cnn3-c3cc(O)c(F)c(F)c3)c2)C1 [Compound 25, 2,3-Difluoro-5-(5-((1-(methylsulfonyl)azetidin-3-yl)oxy)-1H-indazol-1-yl)phenol] | 0.1 to 1 |
| Cc1nn(-c2cc(C(F)(F)F)c(F)c(O)c2F)c2cnc(N3CCC(OCCN(C)C)CC3)cc12 [Compound 19.60, 3-(5-(4-(2-(Dimethylamino)ethoxy)piperidin-1-yl)-3-methyl-1H-pyrazolo[3,4-c]pyridine-1-yl)-2,6-difluoro-5-(trifluoromethyl)phenol] | 0.1 to 1 |
| CS(=O)(=O)N1CCN(c2ccc3c(cnn3-c3cc(O)c(F)c(C(F)(F)F)c3)c2)C2(CCC2)C1 [Compound 21.46, 2-Fluoro-5-(5-(8-(methyl-sulfonyl)-5,8-diazaspiro[3.5]-nonan-5-yl)-1H-indazol-1-yl)-3-(trifluoromethyl)phenol] | 0.1 to 1 |
| Cc1nn(-c2cc(O)c(F)c(C(N)=O)c2)c2cnc(N3CCOCC34CC4)cc12 [Compound 19.96, 2-Fluoro-3-hydroxy-5-(3-methyl-5-(7-oxa-4-azaspiro[2.5]octan-4-yl)-1H-pyrazolo[3,4-c]pyridin-1-yl)benzamide] | 1 to 30 |
| CS(=O)(=O)N1CCN(c2cc3cn(-c4cc(F)c(F)c(O)c4F)nc3cn2)CC1 [Compound 19.30, 2,3,6-Trifluoro-5-(5-(4-(methylsulfonyl)piperazin-1-yl)-2H-pyrazolo[3,4-c]pyridine-2-yl)phenol] | 0.1 to 1 |

Next, values leading:

| IC50 [µM] | SMILES |
| --- | --- |
| 1 to 30 | COc1cccc(-c2ccc3c(cnn3-c3ccc(F)c(O)c3)c2)c1 [Compound 5.21, 2-Fluoro-5-(5-(3-methoxyphenyl)-1H-indazol-1-yl)phenol] |
| 1 to 30 | CS(=O)(=O)N1CCN(c2ccc3c(c2)c(C2CC2)nn3-c2cc(O)c(F)c(F)c2)CC1 [Compound 21.12, 5-(3-Cyclopropyl-5-(4-(meth-ylsulfonyl)piperazin-1-yl)-1H-indazol-1-yl)-2,3-difluoro-phenol] |
| 0.1 to 1 | CS(=O)(=O)N1CCN(c2cc3cnn(-c4cc(O)c(F)c(Cl)c4)c3cn2)CC1 [Compound 19.21, 3-Chloro-2-fluoro-5-(5-(4-(methylsulfonyl)piperazin-1-yl)-1H-pyrazolo[3,4-c]pyridine-1-yl)phenol] |
| 0.1 to 1 | CC(C)S(=O)(=O)N1CCN(c2cc3cnn(-c4cc(O)c(F)c(F)c4)c3cc2Cl)CC1 [Compound 21.28, 5-(6-Chloro-5-(4-(isopropyl-sulfonyl)piperazin-1-yl)-1H-indazol-1-yl)-2,3-difluoro-phenol] |
| 0.1 to 1 | CC1(C)COCCN1c1cc2cnn(-c3cc(O)c(F)c(C(F)(F)F)c3)c2cn1 [Compound 19.32, 5-(5-(3,3-Dimethylmorpholino)-1H-pyrazolo[3,4-c]pyridine-1-yl)-2-fluoro-3-(trifluoromethyl)phenol] |
| 0.1 to 1 | CS(=O)(=O)N1CCN(c2cc3cnn(-c4cc(F)c(F)c(O)c4F)c3cn2)CC1 [Compound 19.29, 2,3,6-Trifluoro-5-(5-(4-(methylsulfonyl)piperazin-1-yl)-1H-pyrazolo[3,4-c]pyridine-1-yl)phenol] |
| 0.1 to 1 | CS(=O)(=O)N1CCN(c2ccc3c(cnn3-c3cc(O)cc(C(F)(F)F)c3)c2)CC1 [Compound 28.07, 3-(5-(4-(Methylsulfonyl)-piperazin-1-yl)-1H-indazol-1-yl)-5-(trifluoromethyl)phenol] |
| 1 to 30 | CS(=O)(=O)N1CCN(c2ccc3nn(-c4cc(C(F)(F)F)cc(O)n4)cc3c2)CC1 [Compound 31.01, 6-(5-(4-(Methylsulfonyl)-piperazin-1-yl)-2H-indazol-2-yl)-4-(trifluoromethyl)-pyridin-2-ol] |
| 0.1 to 1 | N#Cc1cccc(-c2ccc3c(cnn3-c3ccc(F)c(O)c3)c2)c1 [Compound 6.01, 3-(1-(4-Fluoro-3-hydroxyphenyl)-1H-indazol-5-yl)benzonitrile] |
| 0.1 to 1 | Cc1nn(-c2cc(C(F)(F)F)c(F)c(O)c2F)c2cnc(N3CCC(Oc4ccccc4)CC3)cc12 [Compound 19.55, 2,6-Difluoro-3-(3-methyl-5-(4-phenoxypiperidin-1-yl)-1H-pyrazolo[3,4-c]pyridine-1-yl)-5-(trifluoromethyl)phenol] |
| 0.1 to 1 | COc1ccc(-c2ccc3c(cnn3-c3cc(O)c(F)c(F)c3)c2)cn1 [Compound 7.01, 2,3-Difluoro-5-(5-(6-methoxypyridin-3-yl)-1H-indazol-1-yl)phenol] |
| < 0.1 | Cc1nn(-c2cc(C(F)(F)F)c(F)c(O)c2F)c2cc(F)c(N3CCOCC34CC4)cc12 [Compound 19.67, 2,6-Difluoro-3-(6-fluoro-3-methyl-5-(7-oxa-4-azaspiro[2.5]octan-4-yl)-1H-indazol-1-yl)-5-(trifluoromethyl)phenol] |
| 0.1 to 1 | O=S(=O)(Cc1ccccc1)N1CCN(c2ccc3c(cnn3-c3cc(O)c(F)c(F)c3)c2)CC1 [Compound 21.10, 5-(5-(4-(Benzylsulfonyl)-piperazin-1-yl)-1H-indazol-1-yl)-2,3-difluorophenol] |
| 1 to 30 | O=C(O)c1ccccc1-c1ccc2c(cnn2-c2ccc(F)c(O)c2)c1 [Compound 5.23, 2-(1-(4-Fluoro-3-hydroxyphenyl)-1H-indazol-5-yl)benzoic acid] |
| < 0.1 | CS(=O)(=O)N1CCN(c2cc3c(F)nn(-c4cc(O)c(F)c(C(F)(F)F)c4)c3cn2)CC1 [Compound 21.53, 2-Fluoro-5-(3-fluoro-5-(4-(methylsulfonyl)piperazin-1-yl)-1H-pyrazolo[3,4-c]pyridin-1-yl)-3-(trifluoromethyl)phenol] |

same assay, conditions: read-out: HSD17β13 inhibition at 30 uM

| inhibition at 30 µM [%] | SMILES |
| --- | --- |
| 39 | CS(=O)(=O)N1CCN(c2cc3cn(-c4cccc(O)c4C#N)nc3cn2)CC1 [Compound 19.40, 2-Hydroxy-6-(5-(4-(methylsulfonyl)piperazin-1-yl)-2H-pyrazolo[3,4-c]pyridine-2-yl)benzonitrile] |
| 47 | Cc1cc(N2CCN(S(C)(=O)=O)CC2)cc2cnn(-c3cc(O)c(F)c(F)c3)c12 [Compound 21.17, 2,3-Difluoro-5-(7-methyl-5-(4-(methylsulfonyl)piperazin-1-yl)-1H-indazol-1-yl)phenol] |
| 43 | CS(=O)(=O)N1CCN(c2cc3cn(-c4ccc(C#N)c(O)c4)nc3cn2)CC1 [Compound 19.37, 2-Hydroxy-4-(5-(4-(methylsulfonyl)piperazin-1-yl)-2H-pyrazolo[3,4-c]pyridine-2-yl)benzonitrile] |
| 55 | Cc1nn(-c2cc(O)ccc2C#N)c2cnc(N(C)C3CCOCC3)cc12 [Compound 19.61, 4-Hydroxy-2-(3-methyl-5-(methyl(tetrahydro-2H-pyran-4-yl)amino)-1H-pyrazolo[3,4-c]pyridin-1-yl)benzonitrile] |

same assay, conditions: read-out: HSD17β13 inhibition at 100 uM

| inhibition at 100 µM [%] | SMILES |
| --- | --- |
| < 20 | CC(=O)N1CCN(c2ccc3c(cnn3-c3ccc(F)c(O)c3)c2)CC1 [Compound 20.05, 1-(4-(1-(4-Fluoro-3-hydroxyphenyl)-1H-indazol-5-yl)piperazin-1-yl)ethan-1-one] |
